Reference: article PMC11211441, “Distributable, metabolic PET reporting of tuberculosis” (Nature Communications, 2024)

Key:
[1] = Detection/stability of [19F]FDT in human plasma; format: in vitro ADME; settings: spiked human plasma, LC-MS
Description: FDT standards were prepared in human plasma (Sigma Aldrich), whereby 20 μL plasma samples were spiked with various known concentrations of [^19F]FDT i.e. 10 μM, 20 μM, 40 μM, 120 μM, 160 μM, and 300 μM in 1.5 ml Eppendorf tube and diluted with up to 50% acetonitrile solution. Samples were vortexed for 1 min and centrifuged at 13000 rpm (15871 x g) for 10 min and supernatant was analyzed directly by LC-MS using LC method 2.
Figure S35. Detection of [19F]FDT for Assessment of Stability in Human Plasma
A) Experimental set-up of the sample preparation. Commercially available human plasma samples were spiked with known concentrations of [19F] FDT, plasma proteins were then precipitated by adding up to 50% of MeCN solution and after centrifugation the samples were analysed by LC-MS. Panel A created with BioRender.com, released under a Creative Commons Attribution-NonCommercial-NoDerivs 4.0 International license. B) [19F]FDT standard sample analysed by LC-MS method 2 with the retention time of 6.5 min. C) LC-MS analysis of plasma sample spiked with known amount of FDT showing the similar retention […]
efficient detection. D) Calibration curve of plasma samples when spiked with FDT concentrations from 10 µM – 300 µM with r2 = 0.998 and E) Further calibration curve showing instrument sensitivity down to > 390 nM for detection of FDT ( r2 = 0.998 ). […]

[2] = Single and repeat iv dose toxicity study in dogs; format: in vivo; settings: beagle dogs, 100 x or 1000 x expected human dose iv
Description: For toxicity studies, 2 g of [^19F]-FDT was synthesized and tested for quality control as described above and in Figs.39 and shipped to a contract research organization. Toxicity studies were conducted by SRI International, Biosciences Division, Menlo Park, CA, USA in rats and dogs. The experimental design is described in Tables S10, S11, respectively.
To assess the toxicity associated with [^19F]-FDT in dogs, male and female Beagle dogs (5/sex) were given a daily iv injection of [^19F]-FDT at 0.4 mg/kg/day (100 times of human dose; Group 2) for 7 consecutive days, or a single iv administration of [^19F]-FDT at 0.4 or 4 mg/kg (100 and 1000 times of human dose in Groups 3 and 4, respectively) on Day 7. A control group (5/sex; Group 1), was given 7 days of vehicle (HEPES buffer, pH 7.5, 50 mM with MgCl2 7.5 mM), at an equivalent dose volume of 0.25 ml/kg on Days 1–7. Animals were sacrificed on Day 9 (3/sex/ group; main groups) or Day 21 (2/sex/group; recovery groups). The single dose administration for Groups 3–4 were initiated on Day 7 so that clinical pathology and necropsy occurred on the same calendar day for all Groups (1–4), thus allowing for sharing of vehicle control data for analysis of clinical pathology and necropsy results between the two dose regimens.

## OC[C@H]1O[C@H](O[C@H]2O[C@H](CO)[C@@H](O)[C@H](O)[C@H]2F)[C@H](O)[C@@H](O)[C@@H]1O [[^19F]FDT]
[1]
  stability in human plasma: no immediate degradation or apparent sequestration
[2]
  adverse findings in any parameters measured: no adverse findings
